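Where inhibition never reached the appropriate level, the endpoint shown equals the highest concentration tested. Otherwise, values were interpolated linearly from a five-concentration, 48-hour dose response in 96-well plates. TGI is the concentration that stops growth completely.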
What was measured:
Test in all cases: DTP human tumour cell line panel, 48 h
[1] = test system: A549 NSCLC
[2] = test system: BT-549 breast
[3] = test system: CCRF-CEM leukemia
[4] = test system: HCT-15 colon
[5] = test system: HOP-62 NSCLC
[6] = test system: HS 578T breast
[7] = test system: IGROV1 ovarian
[8] = test system: LOX IMVI melanoma
[9] = test system: M14 melanoma
[10] = test system: MALME-3M melanoma
[11] = test system: MCF7 breast
[12] = test system: MDA-MB-231 breast
[13] = test system: MDA-MB-435
[14] = test system: NCI-H226 lung
[15] = test system: OVCAR-4 ovarian
[16] = test system: PC-3 prostate
[17] = test system: RPMI-8226 leukemia
[18] = test system: SF-295 CNS
[19] = test system: SNB-19 CNS
[20] = test system: SNB-75 CNS

Measured: TGI

COc1ccc(C(OCC2OC(n3cc(C)c(=O)[nH]c3=O)CC2n2cc(Cn3cc(Br)c(=O)[nH]c3=O)nn2)(c2ccccc2)c2ccccc2)cc1 (stereo not given)
> 100 µM: all assays above

O=[N+]([O-])c1ccc(S(=O)(=O)N=Ic2ccccc2)cc1
> 100 µM: all assays above

Source: PubChem BioAssay (NCI)
